Target: T1, mGluR5 (Homo sapiens, UniProt P41594)
T1 construct: expressed in transfected cells
Test: inhibition of the glutamate (agonist) induced elevation of the inositol phosphate turnover
Assay type: cell-based
Conditions: inhibition of glutamate induced elevation of inositol phosphate turnover at 0.1 μM
Excerpt: This can be determined in vitro for example at recombinant human metabotropic glutamate receptors, especially PLC-coupled subtypes thereof such as mGluR5, using different procedures like, for example, measurement of the inhibition of the agonist induced elevation of intracellular Ca^2+ concentration in accordance with L. P. Daggett et al., Neuropharm. Vol. 34, pages 871-886 (1995), P. J. Flor et al., J. Neurochem. Vol. 67, pages 58-63 (1996) or by determination to what extent the agonist induced elevation of the inositol phosphate turnover is inhibited as described by T. Knoepfel et al., Eur. J. Pharmacol. Vol. 288, pages 389-392 (1994), L. P. Daggett et al., Neuropharm. Vol. 67, pages 58-63 (1996) and references cited therein. Isolation and expression of human mGluR subtypes are described in U.S. Pat. No. 5,521,297. Selected agents of the invention show IC50 values for the inhibition of the agonist (e.g. glutamate or quisqualate) induced elevation of intracellular Ca2+ concentration or the agonist (e.g. glutamate or quisqualate) induced inositol phosphate turnover, measured in recombinant cells expressing hmGluR^5a of about 0.1 nM to about 50 μM.
Activity of compounds of the present invention was examined by determination to what extent the agonist induced elevation of the inositol phosphate turnover is inhibited as described by T. Knoepfel et al., Eur. J. Pharmacol. Vol. 288, pages 389-392 (1994), L. P. Daggett et al., Neuropharm. Vol. 67, pages 58-63 (1996) and references cited therein.
The table below represents percentages of inhibition of the glutamate induced elevation of the inositol phosphate turnover at a concentration of 0.1 μM.

T1 sequence (P41594 21-1180 isoform P41594-2 limits assumed): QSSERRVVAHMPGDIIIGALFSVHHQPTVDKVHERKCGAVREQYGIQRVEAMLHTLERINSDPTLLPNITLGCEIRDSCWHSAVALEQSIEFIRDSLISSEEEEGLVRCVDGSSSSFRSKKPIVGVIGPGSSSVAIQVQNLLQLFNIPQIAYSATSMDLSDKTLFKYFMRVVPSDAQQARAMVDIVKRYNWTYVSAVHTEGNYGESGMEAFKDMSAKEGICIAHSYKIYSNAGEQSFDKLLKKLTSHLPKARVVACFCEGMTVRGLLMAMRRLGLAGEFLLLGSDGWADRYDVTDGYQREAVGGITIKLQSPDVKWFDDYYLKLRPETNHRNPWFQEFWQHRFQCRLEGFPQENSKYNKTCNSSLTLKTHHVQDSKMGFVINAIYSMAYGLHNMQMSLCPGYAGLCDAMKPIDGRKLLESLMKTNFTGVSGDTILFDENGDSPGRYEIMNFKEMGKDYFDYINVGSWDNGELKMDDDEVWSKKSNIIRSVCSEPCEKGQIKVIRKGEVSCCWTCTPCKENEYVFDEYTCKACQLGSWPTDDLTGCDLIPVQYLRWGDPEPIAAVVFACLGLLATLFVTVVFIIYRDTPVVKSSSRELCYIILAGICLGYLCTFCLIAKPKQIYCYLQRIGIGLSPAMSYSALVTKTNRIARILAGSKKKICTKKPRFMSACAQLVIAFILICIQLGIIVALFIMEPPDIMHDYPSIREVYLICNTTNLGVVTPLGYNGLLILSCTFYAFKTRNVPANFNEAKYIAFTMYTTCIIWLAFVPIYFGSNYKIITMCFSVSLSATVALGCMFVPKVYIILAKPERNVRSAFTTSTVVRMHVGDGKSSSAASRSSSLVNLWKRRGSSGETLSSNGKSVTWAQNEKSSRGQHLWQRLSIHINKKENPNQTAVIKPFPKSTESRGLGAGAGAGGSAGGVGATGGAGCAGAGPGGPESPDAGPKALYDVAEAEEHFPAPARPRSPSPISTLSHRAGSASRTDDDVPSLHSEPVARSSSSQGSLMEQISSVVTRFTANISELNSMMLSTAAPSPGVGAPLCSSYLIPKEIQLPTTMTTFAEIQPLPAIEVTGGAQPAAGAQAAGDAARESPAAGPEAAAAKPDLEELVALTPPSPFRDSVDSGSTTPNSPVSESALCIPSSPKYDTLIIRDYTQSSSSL

Row | Compound | mGluR5-activity in [%] inhibition at 0.1 μM | inhibition at 0.1 µM
1 | CCCn1c(-c2cnc(Nc3ccc(N(C)C)nc3)c(Cl)c2)nc2cccc(Cl)c21 [Example 70, N-5-[3-Chloro-5-(7-chloro-1-propyl-1H-benzoimidazol-2-yl)-pyridin-2-yl]-N2,N-2-dimethyl-pyridine-2,5-diamine] | 90% | –
2 | CCCn1c(-c2cnc(Nc3ccc(NC(C)=O)nc3)c(Cl)c2)nc2ccc(F)cc21 [Example 71, N-{5-[3-Chloro-5-(6-fluoro-1-propyl-1H-benzoimidazol-2-yl)-pyridin-2-ylamino]-pyridin-2-yl}-acetamide] | – | 20%
3 | CCCn1c(-c2cnc(Nc3ccc(N)nc3)c(Cl)c2)nc2ccc(F)cc21 [Example 71b, N-5-[3-Chloro-5-(6-fluoro-1-propyl-1H-benzoimidazol-2-yl)-pyridin-2-yl]-pyridine-2,5-diamine] | 100% | –
4 | CCCn1c(-c2cnc(Nc3cnccn3)c(Cl)c2)nc2cccc(Cl)c21 [Example 72, [3-Chloro-5-(7-chloro-1-propyl-1H-benzoimidazol-2-yl)-pyridin-2-yl]-pyrazin-2-yl-amine] | – | 96%
5 | CCCn1c(-c2cnc(Nc3cc(C)no3)c(Cl)c2)nc2cccc(Cl)c21 [Example 73, [3-Chloro-5-(7-chloro-1-propyl-1H-benzoimidazol-2-yl)-pyridin-2-yl]-(3-methyl-isoxazol-5-yl)-amine] | – | 98%
6 | CCCn1c(-c2cnc(Nc3ccc(OC)nc3)c(Cl)c2)nc2cccc(Cl)c21 [Example 74, [3-Chloro-5-(7-chloro-1-propyl-1H-benzoimidazol-2-yl)-pyridin-2-yl]-(6-methoxy-pyridin-3-yl)-amine] | – | 99%
7 | CCCn1c(-c2cnc(Nc3ccc(OC)cc3)c(Cl)c2)nc2cccc(Cl)c21 [Example 75, [3-Chloro-5-(7-chloro-1-propyl-1H-benzoimidazol-2-yl)-pyridin-2-yl]-(4-methoxy-phenyl)-amine] | – | 99%
8 | CCCn1c(-c2cnc(Nc3ccc(C#N)nc3)c(Cl)c2)nc2cccc(Cl)c21 [Example 75b, 5-[3-Chloro-5-(7-chloro-1-propyl-1H-benzoimidazol-2-yl)-pyridin-2-ylamino]-pyridine-2-carbonitrile] | – | 99%
9 | CCCn1c(-c2cnc(Nc3ccc(NC(C)=O)nc3)c(Cl)c2)nc2cccc(Cl)c21 [Example 75c, N-{5-[3-Chloro-5-(7-chloro-1-propyl-1H-benzoimidazol-2-yl)-pyridin-2-ylamino]-pyridin-2-yl}-acetamide] | – | 100%
10 | CCCn1c(-c2cnc(Nc3ccc(C(=O)OC)nc3)c(Cl)c2)nc2cccc(Cl)c21 [Example 75d, 5-[3-Chloro-5-(7-chloro-1-propyl-1H-benzoimidazol-2-yl)-pyridin-2-ylamino]-pyridine-2-carboxylic acid methyl ester] | – | 100%
11 | CCCn1c(-c2cnc(Nc3ccc(N)nc3)c(Cl)c2)nc2cccc(Cl)c21 [Example 75e, N-5-[3-Chloro-5-(7-chloro-1-propyl-1H-benzoimidazol-2-yl)-pyridin-2-yl]-pyridine-2,5-diamine] | 100% | –
12 | CCCn1c(-c2cnc(Nc3ccc(CO)nc3)c(Cl)c2)nc2cccc(Cl)c21 [Example 75f, {5-[3-Chloro-5-(7-chloro-1-propyl-1H-benzoimidazol-2-yl)-pyridin-2-ylamino]-pyridin-2-yl}-methanol] | – | 92%
13 | CCCn1c(-c2ccc(Nc3ccc(C)nc3)cc2)nc2cccc(Cl)c21 [Example 78, [4-(7-Chloro-1-propyl-1H-benzoimidazol-2-yl)-phenyl]-(6-methyl-pyridin-3-yl)-amine] | – | 99%
14 | CCCn1c(-c2ccc(Nc3ccc(C)nc3)cc2)nc2ccc(F)cc21 [Example 79, [4-(6-Fluoro-1-propyl-1H-benzoimidazol-2-yl)-phenyl]-(6-methyl-pyridin-3-yl)-amine] | – | 65%
15 | CCCn1c(-c2ccc(Nc3ccc(C)cc3)cc2)nc2cccc(Cl)c21 [Example 80, [4-(7-Chloro-1-propyl-1H-benzoimidazol-2-yl)-phenyl]-p-tolyl-amine] | – | 90%
16 | CCCn1c(-c2ccc(Nc3ccc(Cl)cc3)cc2)nc2cccc(Cl)c21 [Example 81, (4-Chloro-phenyl)-[4-(7-chloro-1-propyl-1H-benzoimidazol-2-yl)-phenyl]-amine] | – | 96%
17 | CCCn1c(-c2ccc(Nc3ccc(OC)cc3)cc2)nc2cccc(Cl)c21 [Example 82, [4-(7-Chloro-1-propyl-1H-benzoimidazol-2-yl)-phenyl]-(4-methoxy-phenyl)-amine] | – | 88%
18 | CCCn1c(-c2ccc(Nc3ccc(C)cc3)cc2)nc2ccc(F)cc21 [Example 83, [4-(6-Fluoro-1-propyl-1H-benzoimidazol-2-yl)-phenyl]-p-tolyl-amine] | – | 52%

Row | Compound | mGluR5-activity in [%] inhibition at 0.1 μM | inhibition at 0.1 µM
19 | CCCn1c(-c2ccc(Nc3ccc(OC)cc3)nn2)nc2cccc(Cl)c21 [Example 86, [6-(7-Chloro-1-propyl-1H-benzoimidazol-2-yl)-pyridazin-3-yl]-(4-methoxy-phenyl)-amine] | – | 60%
20 | CCCn1c(-c2ccc(Nc3ccc(Cl)cc3)nn2)nc2cccc(Cl)c21 [Example 87, (4-Chloro-phenyl)-[6-(7-chloro-1-propyl-1H-benzoimidazol-2-yl)-pyridazin-3-yl]-amine] | – | 47%
21 | CCCn1c(-c2ccc(Nc3ccc(C)nc3)nn2)nc2cccc(Cl)c21 [Example 88, [6-(7-Chloro-1-propyl-1H-benzoimidazol-2-yl)-pyridazin-3-yl]-(6-methyl-pyridin-3-yl)-amine] | – | 97%
22 | CCCn1c(-c2cnc(Nc3ccc(OC)cc3)nc2)nc2cccc(Cl)c21 [Example 90, [5-(7-Chloro-1-propyl-1H-benzoimidazol-2-yl)-pyrimidin-2-yl]-(4-methoxy-phenyl)-amine] | – | 102%
23 | CCCn1c(-c2cnc(Nc3ccc(Cl)cc3)nc2)nc2cccc(Cl)c21 [Example 91, (4-Chloro-phenyl)-[5-(7-chloro-1-propyl-1H-benzoimidazol-2-yl)-pyrimidin-2-yl]-amine] | – | 100%
24 | CCCn1c(-c2cnc(Nc3ccc(C)nc3)nc2)nc2cccc(Cl)c21 [Example 92, [5-(7-Chloro-1-propyl-1H-benzoimidazol-2-yl)-pyrimidin-2-yl]-(6-methyl-pyridin-3-yl)-amine] | – | 99%
25 | CCCn1c(-c2cnc(Nc3ccc(OC)cc3)nc2)nc2ccc(F)cc21 [Example 93, [5-(6-Fluoro-1-propyl-1H-benzoimidazol-2-yl)-pyrimidin-2-yl]-(4-methoxy-phenyl)-amine] | – | 34%
26 | CCCn1c(-c2ccc(Nc3ccc(C)nc3)c(Cl)c2)nc2ccccc21 [Example 94, [2-Chloro-4-(1-propyl-1H-benzoimidazol-2-yl)-phenyl]-(6-methyl-pyridin-3-yl)-amine] | – | 97%
27 | CCCn1c(-c2ccc(Nc3ccc(C)cc3)c(Cl)c2)nc2cccc(Cl)c21 [Example 95, [2-Chloro-4-(7-chloro-1-propyl-1H-benzoimidazol-2-yl)-phenyl]-p-tolyl-amine] | – | 63%
28 | CCCn1c(-c2ccc(Nc3ccc(Cl)cc3)c(Cl)c2)nc2cccc(Cl)c21 [Example 96, [2-Chloro-4-(7-chloro-1-propyl-1H-benzoimidazol-2-yl)-phenyl]-(4-chloro-phenyl)-amine] | – | 85%
29 | CCCn1c(-c2ccc(Nc3ccc(OC)cc3)c(Cl)c2)nc2cccc(Cl)c21 [Example 97, [2-Chloro-4-(7-chloro-1-propyl-1H-benzoimidazol-2-yl)-phenyl]-(4-methoxy-phenyl)-amine] | – | 98%
30 | CCCn1c(-c2ccc(Nc3ccc(C)nc3)c(Cl)c2)nc2cccc(Cl)c21 [Example 98, [2-Chloro-4-(7-chloro-1-propyl-1H-benzoimidazol-2-yl)-phenyl]-(6-methyl-pyridin-3-yl)-amine] | – | 103%
31 | CCCn1c(-c2ccc(Nc3ccc(OC)cc3)nc2)nc2cccc(Cl)c21 [Example 99, [5-(7-Chloro-1-propyl-1H-benzoimidazol-2-yl)-pyridin-2-yl]-(4-methoxy-phenyl)-amine] | – | 99%
32 | CCCn1c(-c2ccc(Nc3ccc(C)nc3)nc2)nc2cccc(Cl)c21 [Example 100, [5-(7-Chloro-1-propyl-1H-benzoimidazol-2-yl)-pyridin-2-yl]-(6-methyl-pyridin-3-yl)-amine] | – | 100%
33 | CCCn1c(-c2ccc(Nc3ccc(Cl)cc3)nc2)nc2cccc(Cl)c21 [Example 101, (4-Chloro-phenyl)-[5-(7-chloro-1-propyl-1H-benzoimidazol-2-yl)-pyridin-2-yl]-amine] | – | 95%
34 | CCCn1c(-c2ccc(Nc3ccc(C)nc3)nc2)nc2ccccc21 [Example 102, (6-Methyl-pyridin-3-yl)-[5-(1-propyl-1H-benzoimidazol-2-yl)-pyridin-2-yl]-amine] | – | 90%
35 | CCCn1c(-c2ccc(Nc3ccc(C)cc3)nc2)nc2cccc(Cl)c21 [Example 103, [5-(7-Chloro-1-propyl-1H-benzoimidazol-2-yl)-pyridin-2-yl]-p-tolyl-amine] | – | 97%
